Measured values as given in PubChem BioAssay (NCI).
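Where inhibition never reached the appropriate level, the endpoint shown equals the highest concentration tested. Otherwise, values were interpolated linearly from a five-concentration, 48-hour dose response in 96-well plates. Abbreviation: GI50, concentration required for 50% inhibition of growth. TGI denotes the concentration required for complete inhibition of growth.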

Experiments:
Experiment in all cases: NCI-60 cell line screen, 48 h
786-0 renal = tested on: 786-0 renal
A498 renal = tested on: A498 renal
A549 NSCLC = tested on: A549 NSCLC
ACHN renal = tested on: ACHN renal
BT-549 breast = tested on: BT-549 breast
CAKI-1 renal = tested on: CAKI-1 renal
CCRF-CEM leukemia = tested on: CCRF-CEM leukemia
COLO 205 colon = tested on: COLO 205 colon
DU-145 prostate = tested on: DU-145 prostate
EKVX NSCLC = tested on: EKVX NSCLC
HCC-2998 colon = tested on: HCC-2998 colon
HCT-116 colon = tested on: HCT-116 colon
HCT-15 colon = tested on: HCT-15 colon
HL-60(TB) leukemia = tested on: HL-60(TB) leukemia
HOP-62 NSCLC = tested on: HOP-62 NSCLC
HOP-92 NSCLC = tested on: HOP-92 NSCLC
HS 578T breast = tested on: HS 578T breast
HT29 colon = tested on: HT29 colon
IGROV1 ovarian = tested on: IGROV1 ovarian
K-562 leukemia = tested on: K-562 leukemia
KM12 colon = tested on: KM12 colon
LOX IMVI melanoma = tested on: LOX IMVI melanoma
M14 melanoma = tested on: M14 melanoma
MALME-3M melanoma = tested on: MALME-3M melanoma
MCF7 breast = tested on: MCF7 breast
MDA-MB-231 breast = tested on: MDA-MB-231 breast
MDA-MB-435 = tested on: MDA-MB-435
MOLT-4 leukemia = tested on: MOLT-4 leukemia
NCI-H226 lung = tested on: NCI-H226 lung
NCI-H23 lung = tested on: NCI-H23 lung
NCI-H460 lung = tested on: NCI-H460 lung
NCI-H522 lung = tested on: NCI-H522 lung
NCI/ADR-RES ovarian = tested on: NCI/ADR-RES ovarian
OVCAR-3 ovarian = tested on: OVCAR-3 ovarian
OVCAR-4 ovarian = tested on: OVCAR-4 ovarian
OVCAR-5 ovarian = tested on: OVCAR-5 ovarian
OVCAR-8 ovarian = tested on: OVCAR-8 ovarian
PC-3 prostate = tested on: PC-3 prostate
RPMI-8226 leukemia = tested on: RPMI-8226 leukemia
RXF 393 renal = tested on: RXF 393 renal
SF-268 CNS = tested on: SF-268 CNS
SF-295 CNS = tested on: SF-295 CNS
SF-539 CNS = tested on: SF-539 CNS
SK-MEL-2 melanoma = tested on: SK-MEL-2 melanoma
SK-MEL-28 melanoma = tested on: SK-MEL-28 melanoma
SK-MEL-5 melanoma = tested on: SK-MEL-5 melanoma
SK-OV-3 ovarian = tested on: SK-OV-3 ovarian
SN12C renal = tested on: SN12C renal
SNB-19 CNS = tested on: SNB-19 CNS
SNB-75 CNS = tested on: SNB-75 CNS
SW-620 colon = tested on: SW-620 colon
T-47D breast = tested on: T-47D breast
TK-10 renal = tested on: TK-10 renal
U251 CNS = tested on: U251 CNS
UACC-257 melanoma = tested on: UACC-257 melanoma
UACC-62 melanoma = tested on: UACC-62 melanoma
UO-31 renal = tested on: UO-31 renal
SR leukemia = tested on: SR leukemia

## Clc1ccc(-c2nc3c(-c4ccc(Cl)cc4)nc(-c4ccccc4)cn3c2-c2ccc(Cl)cc2)cc1
786-0 renal
  GI50: 46.5 µM
  TGI: > 50 µM
A498 renal
  GI50: > 50 µM
  TGI: > 50 µM
A549 NSCLC
  GI50: > 50 µM
  TGI: > 50 µM
ACHN renal
  GI50: > 50 µM
  TGI: > 50 µM
BT-549 breast
  GI50: 14.2 µM
  TGI: > 50 µM
CAKI-1 renal
  GI50: 27.8 µM
  TGI: > 50 µM
CCRF-CEM leukemia
  GI50: > 50 µM
  TGI: > 50 µM
COLO 205 colon
  GI50: > 50 µM
  TGI: > 50 µM
DU-145 prostate
  GI50: > 50 µM
  TGI: > 50 µM
EKVX NSCLC
  GI50: > 50 µM
  TGI: > 50 µM
HCC-2998 colon
  GI50: > 50 µM
  TGI: > 50 µM
HCT-116 colon
  GI50: > 50 µM
  TGI: > 50 µM
HCT-15 colon
  GI50: > 50 µM
  TGI: > 50 µM
HL-60(TB) leukemia
  GI50: > 50 µM
  TGI: > 50 µM
HOP-62 NSCLC
  GI50: 16 µM
  TGI: > 50 µM
HOP-92 NSCLC
  GI50: 14.9 µM
  TGI: 37.1 µM
HS 578T breast
  GI50: 10.8 µM
  TGI: > 50 µM
HT29 colon
  GI50: > 50 µM
  TGI: > 50 µM
IGROV1 ovarian
  GI50: 20.5 µM
  TGI: > 50 µM
K-562 leukemia
  GI50: > 50 µM
  TGI: > 50 µM
KM12 colon
  GI50: > 50 µM
  TGI: > 50 µM
LOX IMVI melanoma
  GI50: > 50 µM
  TGI: > 50 µM
M14 melanoma
  GI50: > 50 µM
  TGI: > 50 µM
MALME-3M melanoma
  GI50: > 50 µM
  TGI: > 50 µM
MCF7 breast
  GI50: > 50 µM
  TGI: > 50 µM
MDA-MB-231 breast
  GI50: 27.9 µM
  TGI: > 50 µM
MDA-MB-435
  GI50: > 50 µM
  TGI: > 50 µM
MOLT-4 leukemia
  GI50: > 50 µM
  TGI: > 50 µM
NCI-H226 lung
  GI50: > 50 µM
  TGI: > 50 µM
NCI-H23 lung
  GI50: > 50 µM
  TGI: > 50 µM
NCI-H460 lung
  GI50: > 50 µM
  TGI: > 50 µM
NCI-H522 lung
  GI50: 44.7 µM
  TGI: > 50 µM
NCI/ADR-RES ovarian
  GI50: > 50 µM
  TGI: > 50 µM
OVCAR-3 ovarian
  GI50: > 50 µM
  TGI: > 50 µM
OVCAR-4 ovarian
  GI50: > 50 µM
  TGI: > 50 µM
OVCAR-5 ovarian
  GI50: > 50 µM
  TGI: > 50 µM
OVCAR-8 ovarian
  GI50: > 50 µM
  TGI: > 50 µM
PC-3 prostate
  GI50: > 50 µM
  TGI: > 50 µM
RPMI-8226 leukemia
  GI50: > 50 µM
  TGI: > 50 µM
RXF 393 renal
  GI50: 11.1 µM
  TGI: 29 µM
SF-268 CNS
  GI50: > 50 µM
  TGI: > 50 µM
SF-295 CNS
  GI50: 12 µM
  TGI: > 50 µM
SF-539 CNS
  GI50: 21 µM
  TGI: > 50 µM
SK-MEL-2 melanoma
  GI50: 26 µM
  TGI: > 50 µM
SK-MEL-28 melanoma
  GI50: > 50 µM
  TGI: > 50 µM
SK-MEL-5 melanoma
  GI50: > 50 µM
  TGI: > 50 µM
SK-OV-3 ovarian
  GI50: 24.2 µM
  TGI: > 50 µM
SN12C renal
  GI50: > 50 µM
  TGI: > 50 µM
SNB-19 CNS
  GI50: > 50 µM
  TGI: > 50 µM
SNB-75 CNS
  GI50: 6.56 µM
  TGI: 25.7 µM
SW-620 colon
  GI50: > 50 µM
  TGI: > 50 µM
T-47D breast
  GI50: > 50 µM
  TGI: > 50 µM
TK-10 renal
  GI50: 34.3 µM
  TGI: > 50 µM
U251 CNS
  GI50: 45.2 µM
  TGI: > 50 µM
UACC-257 melanoma
  GI50: > 50 µM
  TGI: > 50 µM
UACC-62 melanoma
  GI50: 26 µM
  TGI: > 50 µM
UO-31 renal
  GI50: > 50 µM
  TGI: > 50 µM

## CC1=NN(c2nc(N)nc(CS(C)(=O)=O)n2)C(C)(C)C1
786-0 renal
  TGI: > 100 µM
A498 renal
  TGI: > 100 µM
ACHN renal
  TGI: > 100 µM
BT-549 breast
  TGI: > 100 µM
CAKI-1 renal
  TGI: > 100 µM
CCRF-CEM leukemia
  TGI: > 100 µM
COLO 205 colon
  TGI: > 100 µM
DU-145 prostate
  TGI: > 100 µM
EKVX NSCLC
  TGI: > 100 µM
HCC-2998 colon
  TGI: > 100 µM
HCT-116 colon
  TGI: > 100 µM
HCT-15 colon
  TGI: > 100 µM
HL-60(TB) leukemia
  TGI: > 100 µM
HOP-62 NSCLC
  TGI: > 100 µM
HOP-92 NSCLC
  TGI: > 100 µM
HS 578T breast
  TGI: > 100 µM
HT29 colon
  TGI: > 100 µM
IGROV1 ovarian
  TGI: > 100 µM
K-562 leukemia
  TGI: > 100 µM
KM12 colon
  TGI: > 100 µM
LOX IMVI melanoma
  TGI: > 100 µM
M14 melanoma
  TGI: > 100 µM
MCF7 breast
  TGI: > 100 µM
MDA-MB-231 breast
  TGI: > 100 µM
MDA-MB-435
  TGI: > 100 µM
MOLT-4 leukemia
  TGI: > 100 µM
NCI-H23 lung
  TGI: > 100 µM
NCI-H460 lung
  TGI: > 100 µM
NCI/ADR-RES ovarian
  TGI: > 100 µM
OVCAR-4 ovarian
  TGI: > 100 µM
OVCAR-8 ovarian
  TGI: > 100 µM
PC-3 prostate
  TGI: > 100 µM
RPMI-8226 leukemia
  TGI: > 100 µM
RXF 393 renal
  TGI: > 100 µM
SF-268 CNS
  TGI: > 100 µM
SF-295 CNS
  TGI: > 100 µM
SF-539 CNS
  TGI: > 100 µM
SK-MEL-2 melanoma
  TGI: > 100 µM
SK-MEL-28 melanoma
  TGI: > 100 µM
SK-MEL-5 melanoma
  TGI: > 100 µM
SK-OV-3 ovarian
  TGI: > 100 µM
SNB-19 CNS
  TGI: > 100 µM
SNB-75 CNS
  TGI: > 100 µM
SR leukemia
  TGI: > 100 µM
SW-620 colon
  TGI: > 100 µM
T-47D breast
  TGI: > 100 µM
TK-10 renal
  TGI: > 100 µM
U251 CNS
  TGI: > 100 µM
UACC-257 melanoma
  TGI: > 100 µM
UACC-62 melanoma
  TGI: > 100 µM
UO-31 renal
  TGI: > 100 µM
